Assay results from PubChem BioAssay AID248 (DTP/NCI, 2004).
Where “and” joins values, the source holds several entries; their conditions need not be identical. Equal values may be shown once. Inconclusive results and toxic doses are left out. No stated cut-off is given here; in the data, active means T/C of 150% or more; inactive means T/C below 125%.

Test system: L1210 leukemia ip in BDF1 mice, survival T/C
Assay: NCI In Vivo Anticancer Drug Screen. Data for tumor model L1210 Leukemia (intraperitoneal) in B6D2F1 (BDF1) mice
Conditions: endpoint: mean survival time, higher = longer survival
In short: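 In this screen, tumor-bearing mice given compound are compared to those given vehicle, and their survival values are reported as a treated-to-control quotient.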

[1] = dose: 100.0 mg/kg/injection, schedule: Q01DX001 (ip), vehicle: saline
[2] = dose: 200.0 mg/kg/injection, schedule: Q01DX001 (ip), vehicle: saline
[3] = dose: 400.0 mg/kg/injection, schedule: Q01DX001 (ip), vehicle: saline
[4] = dose: 100.0 mg/kg/injection, schedule: Q01DX009 (ip), vehicle: Klucel (hydroxypropylcellulose) (HPC)
[5] = dose: 100.0 mg/kg/injection, schedule: Q04DX003 (ip), vehicle: Klucel (hydroxypropylcellulose) (HPC)
[6] = dose: 200.0 mg/kg/injection, schedule: Q01DX009 (ip), vehicle: Klucel (hydroxypropylcellulose) (HPC)
[7] = dose: 200.0 mg/kg/injection, schedule: Q04DX003 (ip), vehicle: Klucel (hydroxypropylcellulose) (HPC)
[8] = dose: 400.0 mg/kg/injection, schedule: Q01DX009 (ip), vehicle: Klucel (hydroxypropylcellulose) (HPC)
[9] = dose: 400.0 mg/kg/injection, schedule: Q04DX003 (ip), vehicle: Klucel (hydroxypropylcellulose) (HPC)
[10] = dose: 100.0 mg/kg/injection, schedule: Q01DX001 (ip), vehicle: saline with Tween-80
[11] = dose: 200.0 mg/kg/injection, schedule: Q01DX001 (ip), vehicle: saline with Tween-80
[12] = dose: 5.0 mg/kg/injection, schedule: Q01DX001 (ip), vehicle: carboxymethylcellulose (CMC)
[13] = dose: 10.0 mg/kg/injection, schedule: Q01DX001 (ip), vehicle: carboxymethylcellulose (CMC)
[14] = dose: 100.0 mg/kg/injection, schedule: Q04DX002 (ip), vehicle: saline with Tween-80
[15] = dose: 100.0 mg/kg/injection, schedule: Q04DX003 (ip), vehicle: saline with Tween-80
[16] = dose: 200.0 mg/kg/injection, schedule: Q04DX002 (ip), vehicle: saline with Tween-80
[17] = dose: 200.0 mg/kg/injection, schedule: Q04DX003 (ip), vehicle: saline with Tween-80
[18] = dose: 400.0 mg/kg/injection, schedule: Q01DX009 (ip), vehicle: saline with Tween-80
[19] = dose: 400.0 mg/kg/injection, schedule: Q04DX002 (ip), vehicle: saline with Tween-80
[20] = dose: 400.0 mg/kg/injection, schedule: Q04DX003 (ip), vehicle: saline with Tween-80
[21] = dose: 100.0 mg/kg/injection, schedule: Q04DX002 (ip), vehicle: Klucel (hydroxypropylcellulose) (HPC)
[22] = dose: 200.0 mg/kg/injection, schedule: Q04DX002 (ip), vehicle: Klucel (hydroxypropylcellulose) (HPC)
[23] = dose: 400.0 mg/kg/injection, schedule: Q04DX002 (ip), vehicle: Klucel (hydroxypropylcellulose) (HPC)

Measured: T/C

C1CC(CCN2CCOCC2)CCN1
inactive: [1] 98 % of control | [2] 107 % of control | [3] 105 % of control

CCCCCCC[CH2][Sn](=[O])[CH2]CCCCCCC
inactive: dose: 3.12 mg/kg/injection, schedule: Q01DX009 (ip), vehicle: saline with Tween-80 95 % of control | dose: 6.25 mg/kg/injection, schedule: Q01DX009 (ip), vehicle: saline with Tween-80 100 % of control | dose: 100.0 mg/kg/injection, schedule: Q04DX003 (ip), vehicle: acetone 102 % of control

COC(=O)c1ccccc1NC(=O)Nc1cc(Cl)ccc1OC
inactive: [4] 89 % of control | [5] 106 % of control | [6] 103 % of control | [7] 90 % of control | [8] 107 % of control | [9] 95 % of control

CCCCN(CCCC)C(=O)N(CCCC)CCCC
inactive: dose: 50.0 mg/kg/injection, schedule: Q01DX001 (ip), vehicle: saline with Tween-80 98 % of control | [10] 107 % of control | [11] 101 % of control

CCCCC(CC)(CCN)CCCC
inactive: [12] 102 % of control | [13] 104 % of control | dose: 20.0 mg/kg/injection, schedule: Q01DX001 (ip), vehicle: carboxymethylcellulose (CMC) 91 % of control

CCOC(=O)c1cc(C(=O)OCC)c(C)nc1C
inactive: dose: 75.0 mg/kg/injection, schedule: Q01DX001 (ip), vehicle: saline 96 % of control | dose: 75.0 mg/kg/injection, schedule: Q01DX009 (ip), vehicle: saline 94 % of control | [5] 96 % of control | dose: 150.0 mg/kg/injection, schedule: Q01DX001 (ip), vehicle: saline 98 % of control | dose: 150.0 mg/kg/injection, schedule: Q01DX009 (ip), vehicle: saline 94 % of control | [7] 93 % of control | dose: 300.0 mg/kg/injection, schedule: Q01DX001 (ip), vehicle: saline 100 % of control | dose: 300.0 mg/kg/injection, schedule: Q01DX009 (ip), vehicle: saline 91 % of control | [9] 93 % of control

CC(=O)Nc1ccc(OC(=O)Nc2cccc(Cl)c2C)cc1
inactive: dose: 50.0 mg/kg/injection, schedule: Q01DX009 (ip), vehicle: saline with Tween-80 88 % of control and 92 % of control | [10] 92 % of control | [14] 87 % of control and 89 % of control | [15] 93 % of control | [11] 94 % of control | [16] 86 % of control | [17] 87 % of control | dose: 400.0 mg/kg/injection, schedule: Q01DX001 (ip), vehicle: saline with Tween-80 100 % of control | [18] 101 % of control | [19] 96 % of control and 86 % of control | [20] 90 % of control

Cc1cccc(NC(=O)Nc2ccccc2Cl)n1
inactive: [21] 87 % of control | [22] 87 % of control | [23] 90 % of control

O=C(Cl)COc1c(Cl)cc(Cl)cc1Cl
inactive: [14] 107 % of control | [16] 107 % of control | [19] 103 % of control

CCCCCCCC(=O)O[C@H]1[C@H]2[C@@H](CC1(C)C)C(=O)[C@]13O[C@H]1C(=O)[C@]1(CO1)[C@]23C
inactive: dose: 5.0 mg/kg/injection, schedule: Q01DX009 (ip), vehicle: saline with Tween-80 108 % of control | dose: 10.0 mg/kg/injection, schedule: Q01DX009 (ip), vehicle: saline with Tween-80 119 % of control | dose: 10.0 mg/kg/injection, schedule: Q04DX003 (ip), vehicle: saline with Tween-80 97 % of control | dose: 20.0 mg/kg/injection, schedule: Q01DX009 (ip), vehicle: saline with Tween-80 86 % of control | dose: 20.0 mg/kg/injection, schedule: Q04DX003 (ip), vehicle: saline with Tween-80 99 % of control

COC(=O)c1ccccc1SSc1ccccc1C(=O)OC
inactive: [15] 95 % of control | [17] 102 % of control | [20] 102 % of control

CCCC/C=N\NC(=S)NCCCCCCCCCCCCCCCCCC
inactive: dose: 200.0 mg/kg/injection, schedule: Q01DX Z (ip), vehicle: saline 94 % of control | dose: 300.0 mg/kg/injection, schedule: Q01DX Z (ip), vehicle: saline 103 % of control | dose: 450.0 mg/kg/injection, schedule: Q01DX Z (ip), vehicle: saline 95 % of control | dose: 675.0 mg/kg/injection, schedule: Q01DX Z (ip), vehicle: saline 90 % of control

O=C(Nc1ccccc1)NS(=O)(=O)CS(=O)(=O)NC(=O)Nc1ccccc1
inactive: [1] 104 % of control | [2] 102 % of control | [3] 109 % of control

CCOC(=O)/C(=C\C(C(=O)OCC)C(=O)OCC)CC
inactive: [1] 106 % of control | [2] 103 % of control | [3] 95 % of control

O=C(N/C=C/NC(=O)NCc1ccco1)NCc1ccco1
inactive: [4] 97 % of control | [6] 87 % of control

c1ccc2c(c1)Cc1cc3ccccc3nc1-2
inactive: [15] 106 % of control | dose: 200.0 mg/kg/injection, schedule: Q01DX009 (ip), vehicle: saline with Tween-80 98 % of control | [17] 93 % of control | [18] 90 % of control | [20] 98 % of control

O=C(/C=N/O)Nc1ccc([N+](=O)[O-])cc1
inactive: [21] 92 % of control | [22] 100 % of control | [23] 92 % of control

CC12c3ccccc3C(c3c1ccc1ccccc31)C1C(=O)OC(=O)C12 (stereo not drawn)
inactive: [5] 96 % of control | [7] 104 % of control | [9] 98 % of control

NC(=S)N=Nc1c(O)n2c3c(cccc13)CCc1ccccc1-2
inactive: [15] 92 % of control | [17] 96 % of control | [20] 94 % of control

Cc1ccc(CSCc2ccc(C)cc2)cc1
inactive: [4] 100 % of control | [6] 96 % of control | [8] 92 % of control

CCCCCCCCCCNCCS
inactive: dose: 4.0 mg/kg/injection, schedule: Q01DX015 (ip), vehicle: carboxymethylcellulose (CMC) 105 % of control | [12] 109 % of control | dose: 5.0 mg/kg/injection, schedule: Q04DX003 (ip), vehicle: saline sonified 101 % of control | dose: 8.0 mg/kg/injection, schedule: Q01DX015 (ip), vehicle: carboxymethylcellulose (CMC) 103 % of control | [13] 103 % of control | dose: 10.0 mg/kg/injection, schedule: Q04DX003 (ip), vehicle: saline sonified 101 % of control | dose: 16.0 mg/kg/injection, schedule: Q01DX015 (ip), vehicle: carboxymethylcellulose (CMC) 101 % of control | dose: 20.0 mg/kg/injection, schedule: Q04DX003 (ip), vehicle: saline sonified 101 % of control | dose: 32.0 mg/kg/injection, schedule: Q01DX015 (ip), vehicle: carboxymethylcellulose (CMC) 103 % of control

N/C(=N/N=C/c1ccncc1)N/N=C\c1ccncc1
inactive: dose: 30.0 mg/kg/injection, schedule: Q01DX Z (ip), vehicle: carboxymethylcellulose (CMC) 89 % of control | dose: 30.0 mg/kg/injection, schedule: Q01DX Z (oral), vehicle: carboxymethylcellulose (CMC) 106 % of control | dose: 60.0 mg/kg/injection, schedule: Q01DX Z (ip), vehicle: carboxymethylcellulose (CMC) 87 % of control | dose: 60.0 mg/kg/injection, schedule: Q01DX Z (oral), vehicle: carboxymethylcellulose (CMC) 95 % of control | dose: 120.0 mg/kg/injection, schedule: Q01DX Z (ip), vehicle: carboxymethylcellulose (CMC) 92 % of control | dose: 120.0 mg/kg/injection, schedule: Q01DX Z (oral), vehicle: carboxymethylcellulose (CMC) 97 % of control and 123 % of control | dose: 240.0 mg/kg/injection, schedule: Q01DX Z (oral), vehicle: carboxymethylcellulose (CMC) 101 % of control and 104 % of control | dose: 480.0 mg/kg/injection, schedule: Q01DX Z (oral), vehicle: carboxymethylcellulose (CMC) 101 % of control

CC(=O)C(Cl)C(O)(C(F)(F)F)C(F)(F)F (stereo not drawn)
inactive: dose: 12.5 mg/kg/injection, schedule: Q01DX009 (ip), vehicle: saline 96 % of control | dose: 25.0 mg/kg/injection, schedule: Q01DX009 (ip), vehicle: saline 100 % of control | dose: 50.0 mg/kg/injection, schedule: Q01DX009 (ip), vehicle: saline 110 % of control | [15] 95 % of control | [17] 104 % of control
